Series [1] has as its system A549 alveolar epithelial cells. Kind of series: Apoptosis assay by flow cytometry (annexin V / propidium iodide) in A549 cells. It counts as cell-based, human. The conditions noted are these: for apoptosis of alveolar epithelial cells: 10 μM peptide, 24 h. Here is the method: (§1) The A549 and NHBE cells were cultured in DMEM supplemented with 10% fetal calf serum, 0.03% (w/v) L-glutamine, 100 IU/ml penicillin and 100 μg/ml streptomycin in a humidified, 5% CO2 atmosphere at 37° C. We used A549 cell lines in most experiments because they have higher potential growth and mimic the phenotype of alveolar type II cells more than primary NHBE cells (NPL82, NPL83); and in addition, these primary cells usually easily change phenotype or become senescent after a short period of culture.
(§2) A549 and NBHE cells (4×10^5 cells/well) were seeded into 12-well plates, cultured to sub-confluency, washed and then cultured in serum free medium containing 10% of each bacterial supernatant for 48 h. Non-inoculated hypersaline medium was used as control. The cells were analyzed for apoptosis by flow cytometry (FACScan, BD Biosciences, Oxford, UK) after staining with fluorescein-labelled annexin V and propidium iodide (FITC Annexin V Apoptosis Detection Kit with PI, Biolegend, San Diego, CA). Flow cytometry gating strategy used in the experiments is described in FIGS. 34A-34C. Under physiological conditions, phosphatidylcholine is exposed externally while phosphatidylserine (PS) is located on the inner surface of the lipid bilayer of cellular membranes. See NPL84. During apoptosis, PS is translocated from the cytoplasmic face of the plasma membrane to the cell surface. Id.

Series [2] relates to normal human bronchial epithelial (NHBE) cells. Kind of series: Apoptosis assay by flow cytometry in normal human bronchial epithelial cells. The conditions noted are these: 10 μM, 48 h. It counts as cell-based. Here is the method:
More specifically, FIGS. 19A-19B show a flow cytometry analysis of normal human bronchial epithelial (NHBE) cells after culturing for 48 h in DMEM medium containing 10 μM of corisin or of its scrambled sequence. Each treatment group had n=4. Bars indicate the means ±S.D. Statistical analysis by ANOVA with Tukey's test. *p<0.001.
as §1
A549 and NBHE cells (4×10^5 cells/well) were seeded into 12-well plates, cultured to sub-confluency, washed and then cultured in serum free medium containing 10% of each bacterial supernatant for 48 h. Non-inoculated hypersaline medium was used as control. The cells were analyzed for apoptosis by flow cytometry (FACScan, BD Biosciences, Oxford, UK) after staining with fluorescein-labelled annexin V and propidium iodide (FITC Annexin V Apoptosis Detection Kit with PI, Biolegend, San Diego, CA). […]

For series [3] the test system is unchanged. Kind of series: Western blotting of cleaved caspase-3 and Akt in NHBE cell lysates. It counts as cell-based. As for the experimental part:
Each treatment group had n=4. A representative blot of each treatment group is shown.
FIGS. 19D and 19E show the intensity of the Western blot membrane bands as quantified by densitometry using Image? software. Each treatment group had n=4. Bars indicate the means ±S.D. Statistical analysis was performed by one-tailed Mann-Whitney U test. *p<0.05.
The cells for Western blot analysis were washed twice with ice-cold phosphate-buffered saline and then lysed in radioimmunoprecipitation assay (RIPA) buffer (10 mM Tris-Cl (pH 8.0), 1 mM EDTA, 1% Triton X-100, 0.1% sodium deoxycholate, 0.1% SDS, 140 mM NaCl, 1 mM phenylmethylsulfonyl fluoride) supplemented with protease/phosphatase inhibitors (1 mM orthovandate, 50 mM β-glycerophosphate, 10 mM sodium pyrophosphate, 5 μg/mL leupeptin, 2 μg/mL aprotinin, 5 mM sodium fluoride). The suspensions were centrifuged (17,000 x g, 10 min at 4° C.), and the protein content was determined using Pierce BCA protein assay kit (Thermo Fisher Scientific Incorporation, Waltham, MA). Equal amounts of cellular lysate protein were mixed with Laemmli sample buffer and separated by SDS-PAGE. […] The intensity of the bands was quantified by densitometry using the public domain NIH imageJ program (Wayne Rasband, NIH, Research Service Branch).

The test system of series [4] is HFL1 lung fibroblasts. Kind of series: Apoptosis flow cytometry in lung fibroblasts. It counts as cell-based. The conditions noted are these: 10 μg/ml, 48 h. Here is the method:
FIGS. 21A and 21B show a flow cytometry analysis of HFL1 lung fibroblasts after culturing for 48 h in DMEM medium containing 10 μg/ml corisin. Each had with n=4.
as §2

The test system of series [5] is human umbilical vein endothelial cells. Kind of series: Apoptosis flow cytometry in vascular endothelial cells. The note with it: 10 μg/ml, 48 h. The class given is cell-based. Here is the method:
FIGS. 21C and 21D show a flow cytometry analysis of human umbilical vein endothelial cells after culturing for 48 h in DMEM medium containing 10 μg/ml corisin. Each group had n=4.
as §2

In series [6] the test system is human Jurkat T cells. Kind of series: Apoptosis flow cytometry in T cells. The conditions noted are these: 10 μg/ml, 48 h. The class given is cell-based. Here is the method:
FIGS. 21E and 21F show a flow cytometry analysis of human Jurkat T cells after culturing for 48 h in DMEM medium containing 10 μg/ml corisin. Each treatment group had n=4. Bars indicate the means ±S.D. Statistical analysis was performed by ANOVA with Tukey's test.
as §2

For series [7], the system named is A549 alveolar epithelial cells. Kind of series: Transmission electron microscopy of apoptotic cells. The class given is cell-based, human. The conditions noted are these: 5 μM, 16 h. As for the experimental part:
A549 cells (10×10^4 cells/ml) were plated on a collagen-coated 8-well chamber slides (BD Bioscience, San Jose, CA) and cultured until semi-confluent. Cells were serum-starved for 6 h and stimulated with the pro-apoptotic peptide (5 μM) for 16 h. Cells were fixed with 2% fresh formaldehyde and 2.5% glutaraldehyde in 0.1 M sodium cacodylate buffer (pH 7.4) for 2 h at room temperature. After washing with 0.1 M cacodylate buffer (pH 7.4), they were postfixed with 1% OsO4 in the same buffer for 2 h at 4° C. The samples were rinsed with distilled water, stained with 1% aqueous uranyl acetate for 2 h or overnight at room temperature, dehydrated with ethanol and propylene oxide, and embedded in epon (Epon 812 resin, Nakalai). After removal of the cells from the glass, ultra-thin sections (94 nm) were cut, stained with uranyl acetate and Reynolds's lead citrate, and viewed with a transmission electron microscope (JEM-1010, JEOL, Tokyo, Japan).

The test system of series [8] is TGFβ1 TG mice. Kind of series: Intratracheal instillation of corisin in TGFβ1 TG mice with lung fibrosis. The class given is in vivo, mouse. The note with it: intratracheal once daily for two days, euthanasia day 3, vs control mice. An excerpt:
To investigate whether corisin can exacerbate the lung fibrotic disease in vivo, we separated TGFβ1 TG mice into three groups with matched level of lung fibrosis (see FIGS. 25A and 25B) and treated them with saline, scrambled peptide or corisin by the intratracheal route once daily for two days before euthanasia on day 3 (see FIG. 6A).
Under profound anesthesia, we collected bronchoalveolar lavage fluid for biochemical analysis and cell counting. Briefly, bronchoalveolar lavage fluid was performed by cannulating the trachea with a 20-gauge needle and infusing saline solutions into the lungs in accordance with NPL68. The samples were centrifuged and the supernatants were stored at −80° C. until analysis. The cell pellets were re-suspended in physiological saline solution and the number of cells was counted. A nucleocounter from ChemoMetec (Allerød, Denmark) was used for cell counting and the cells were stained with May-Grünwald-Giemsa (Merck, Darmstadt, Germany) to count differential cells. Mice were sacrificed by anesthesia overdose, and the lungs were resected to fix in formalin, embedded in paraffin and prepared for hematoxylin and eosin staining. The severity of lung fibrosis was quantitated based on the Ashcroft criteria. See NPL67. The level of TGFβ1 was measured using a commercial enzyme immunoassay kit from BD Biosciences Pharmingen (San Diego, CA).
Three groups of TGFβ1 TG mice (each n=5 or n=4) with matched grade (level) of lung fibrosis as assessed by CT score underwent intratracheal instillation of corisin or scrambled peptide or 0.9% NaCl solution on days 1 and 2 and sacrificed on day 3 to evaluate changes in lung inflammation and fibrosis. WT mice (n=3) without lung fibrosis treated with 0.9% NaCl solution were used as controls.
Staining of terminal deoxynucleotidyl transferase dUTP Nick-End Labeling (TUNEL) was performed at the Biopathology Institute Corporation (Kunisaki, Oita, Japan) by using Alexa Fluor 594 goat anti-rabbit IgG and slow-fade gold-antifade reagent with 4′,6-diamidino-2-phenylindole (DAPI) or by using ApopTag terminal deoxynucleotidyl transferase (Merck Millipore, Burlington, MA), anti-digoxigenin-peroxidase and 3,3′-diaminobenzidine. Quantification of apoptotic areas was performed using the WinROOF software (Mitani Corporation, Tokyo, Japan) and the values were averaged for each individual mouse.

With “IVMPESGGNPNAVNPAGYR (listed as Staphylococcus warneri) [1 amino acid change from Staphylococcus nepalensis derivative]”, the “apoptosis of A549 alveolar epithelial cells” value in series [1] (5 μM peptide, 48 h) was “induces apoptosis”.
With “IVMPESSGNPNAVNPAGYR (listed as Staphylococcus cohnii) [corisin, peptide of 19 amino acid residues, segment of transglycosylase 351 IsaA of Staphylococcus nepalensis strain CNDG]”, the “pro-apoptotic activity after heating” value in series [1] (5 μM, incubated at 85° C. for 15 min before adding to A549 cells for 48 h) was “heat-resistant”. Moreover, the “apoptosis of alveolar epithelial cells” value in series [1] is listed as “induces apoptosis of alveolar epithelial cells”. Also, the “apoptotic activity compared with equal protein concentrations of supernatant” value in series [1] (corisin 5 or 10 μg/ml vs supernatant protein 10 or 100 μg/ml, 48 h) was “significantly more potent”. For the same sequence, the “pro-apoptotic effect on A549 cells” value in series [1] (increasing concentrations of synthetic corisin, 48 h, DMEM) was “recapitulated the pro-apoptotic effect of the staphylococcal isolate supernatant in a dose dependent manner”. In series [2], the “apoptosis of normal human bronchial epithelial cells” value is “significantly enhanced apoptosis”. In series [3], the Akt activation entry is recorded as “decreased” and the “cleavage of caspase-3” value is reported as “increased”. Further, in series [4], the “apoptotic activity on lung fibroblast” value was “no apoptotic activity”. The “apoptotic activity on vascular endothelial cell” value in series [5] is “no apoptotic activity”. Further, in series [6], the “apoptotic activity on lymphocyte cell line” value is listed as “no apoptotic activity”. In addition, the “apoptotic property by transmission electron micrographs” value in series [7] is “confirmed the apoptotic property”. In series [8], the “apoptosis of epithelial cells in the lungs” value is “enhanced”; the “collagen deposition in the lungs” value is recorded as “increased”; the “concentration of inflammatory cytokines and chemokines in the lungs” value is on record as “increased”; the “infiltration of macrophages, lymphocytes and neutrophils in the lungs” value is “significantly increased”.
For “IIARESNGQLHARNASGAA (listed as Staphylococcus epidermidis) [reference compound]”, the “apoptosis of alveolar epithelial cells” value in series [1] is listed as “no pro-apoptotic effect”.
For “NRVYNGPAASPVSEGMPIN (listed as Staphylococcus epidermidis) [scrambled peptide, reference compound]”, the “apoptosis of alveolar epithelial cells” value in series [1] was “not”. Also, the “apoptosis of normal human bronchial epithelial cells” value in series [2] is recorded as “did not”.

The values above are taken from US20230357373A1, “METHODS AND COMPOSITIONS FOR […] TREATING FIBROSIS” (Mie University, priority 2019, published 2023).
